Assay: xn = mol fraction of the nth substance listed
Conditions: 298.15 K, 100 kPa

CCn1cc[n+](C)c1.C[C@H](O)C(=O)[O-] + O
Conditions	electrical conductivity [S/m]	speed of sound [m/s]	viscosity [mPa·s]
x1 = 0.0056	0.329	–	–
x1 = 0.0097	–	1567.3	1.17
x1 = 0.0197	–	1631	1.44
x2 = 0.0056	–	1731.4	–
x2 = 0.0097	1.76	–	–
x2 = 0.0197	2.71	–	–
x2 = 0.0304	3.15	–	–
x2 = 0.0374	3.28	–	–
x2 = 0.0464	–	1735.1	110
x2 = 0.0739	3.02	–	–
x2 = 0.094	2.75	–	–
x2 = 0.0982	–	1738.6	60.5
x2 = 0.2881	1.07	–	–
x2 = 0.4781	0.597	–	–
x2 = 0.5219	–	1797.9	18.5
x2 = 0.6862	0.481	–	–
x2 = 0.7119	–	1826.6	11.3
x2 = 0.9018	0.259	–	–
x2 = 0.906	–	1842.9	5.65
x2 = 0.9261	–	1819.8	4.36
x2 = 0.9536	0.289	–	–
x2 = 0.9547	–	1748.4	2.68
x2 = 0.9626	–	1719.9	2.23
